The source of these data is US20260018245A1, “SYSTEMS AND METHODS FOR IDENTIFYING AND TARGETING COLLATERAL LETHAL GENES” (The Regents of the University of Michigan, priority 2022, published 2026).

The test system of experiment [1] is SKOV3 cells expressing shScramble or shUQCR11. Briefly: Viability of isogenic SKOV3 lines expressing shScramble or shUQCR11 treated with MTHFD2 inhibitor. Conditions: SKOV3 cells with UQCR11 knocked down vs shScramble. Format: cell-based. An excerpt:
FIG. 2 Multi-objective metabolic flux analysis identifies MTHFD2 as a collateral lethal target in UQCR11-null ovarian cancers with in vitro, clinical and pan-cancer implications. a, Workflow elucidating multi-objective flux analysis algorithm comparing flux distributions of cancers with and without deletions for identification of collateral lethal pathways. b, Multi-objective metabolic Pareto frontier and metabolic fluxes of MTHFD1, MTHFD2, RNA and DNA syntheses in UQCR11-null and -intact models. Radar plots represent Pareto-optimal flux distributions from maximal biomass to maximal ATP maintenance (counterclockwise). c, mRNA expression of UQCR11 and MTHFD2 in parental ovarian cancer cell lines. Data presented as mean±s.d. (n=6), analysed using two-tailed Student's t-test. d, Protein expression of MTHFD2 and UQCR11. Representative immunoblots with β-actin as loading control. e, Cell viability after dox-induced shMTHFD2 knockdown. […] (n=3), analysed using two-way analysis of variance (ANOVA) with Dunn's correction. f, Viability of parental ovarian cancer lines treated with MTHFD2 inhibitor. […] Data analysed pairwise by log-rank test. k, Overall survival of patients with UCEC and low UQCR11 (bottom quartile) expression and high (top quartile) expression of MTHFD2 compared with patients with low UQCR11 and MTHFD2 (bottom quartile) expression. Data analysed by log-rank test. […]

Experiment [2] relates to UQCR11-null HeyA8 cells. Briefly: Resistance to MTHFD2 inhibition upon AOX expression or UQCR11 overexpression. Conditions: 72 h. Format: cell-based. An excerpt:
FIG. 11 Investigating alternative metabolic pathways to rescue UQCR11-null cells from collateral lethal targeting of MTHFD2. (a) Correlation between NDUFS7 mRNA expression and copy-number alterations of the 19p13.3 locus, represented by UQCR11 copy-number in TCGA OVCA dataset (n=303). Correlations estimated using Spearman's rank correlation test. (b) Gene expression of NDUFS7 measured via qRT-PCR in UQCR11-null lines (OVCAR8, CAOV3, HeyA8) relative to NDUFS7 expression in UQCR11-intact line (SKOV3). Data representative of two independent experiments presented as mean±s.d. (n=5), analyzed using ordinary one-way ANOVA with Dunnett's correction for multiple comparisons. (c) Doseresponse curve for single-agent inhibition in SKOV3 cells by either Complex I inhibitor, rotenone, or MTHFD2 inhibitor. […] Data are representative of two independent experiments and presented as mean±s.e.m (n=3) and analyzed using two-tailed Welch's t-test. […] Viability decrease was measured 72 h after inhibitor treatment relative to vehicle control. […] (n=6) and analyzed using ordinary 2-way ANOVA with Sidak's correction for multiple comparisons. […] (n=4) and analyzed using two-tailed Welch's t-test. […] Viability decrease was measured 72 h after inhibitor treatment relative to vehicle control. […] (n=5) and analyzed using two-tailed Welch's t-test.

On to `Cc1c(N2CCN(C)[C@@H](C)C2)ccc2c3c(c(=O)oc12)CN(C(=O)c1ccc(NS(C)(=O)=O)c(OC(F)(F)F)c1)CC3` [DS18561882], for which the GISO concentrations entry in experiment [1] was “significantly reduced”. The “rescue from MTHFD2 inhibitor-mediated cell death” value in experiment [2] (HeyA8 ectopically expressing alternative oxidase AOX) and in experiment [2] (HeyA8 overexpressing UQCR11) was “partially rescued” in each case.
